# Assay results from US20170073337A1, “DIHYDROTHIAZINE AND DIHYDROOXAZINE DERIVATIVES HAVING BACE1 INHIBITORY ACTIVITY” (Shionogi & Co., Ltd., priority 2014, published 2017).
# pIC50: −log10 of the molar value. Where two headings read alike, the source gives them in different places.
# Legend:
# Solubility test = type: physicochemical; details: for solubility kinetic at 1 h: kinetic from dmso stock; for solubility kinetic at 16 h: solubility in JP 2nd fluid B, 1% DMSO, *2: shaken for 1 hour at room temperature
# Procedure: A 10 mmol/L solution of the compound was prepared with DMSO, and 2 μL of the compound of the present invention solution was added, respectively, to 198 μL of JP 1st fluid (water was added to 2.0 g of sodium chloride and 7.0 ml, of hydrochloric acid to reach 1000 mL) and JP 2nd fluid (See Table 4). The mixture was left standing for 16 hours at 25° C. or shaken for 1 hour at ruom temperature, and the mixture was vacuum-filtered. The […] was ten or one hundred-fold diluted with metbanol/water=1/1 (v/v) or MeCN/MeOH/H2O(=1/1/2), and the compound concent ration in the filtrate was measured with LC/MS or solid phase extraction (SPE)/MS by the absolute calibration method.
# Recombinant human BACE1 = biological target: T1, Recombinant human BACE1 (Homo sapiens, UniProt P56817); test: Assay of BACE1 inhibitory activity: 384-well; type: biochemical; details: Assay format 384-well
# T1 construct: purchased R&D Systems
# Procedure: 5 μL of substrate peptide solution (Biotin-XSEVNLDAEFRHDSGC-Eu: X=ε-amino-n-capronic acid, Eu=Europium eryplate) was added to each well of 384-well plate (a black plate: Corning), and after addition of 0.1 μl of the compound of the present invention (DMSO solution) and 5 μl of Recombinant human BACE1 (R&D Systems), the reaction mixture was incubated at 25° C. for 2 hours. The substrate peptide was synthesized by reacting Cryptate TBPCOOH mono SMP (CIS bio international) with Biotin-XSEVNLDAEFRHDSGC (Peptide Institute, Inc.).
# After the incubation for reaction, 10 μl of 8.0 μg/ml Streptavidin-XL665 (CIS bio International) dissolved in phosphate buffer (150 mmol/L K2HPO4-KH2PO4, pH 7.0, 0.008% Triton X-100, 0.8 mol/L KF) was added to each well and left stand at 25° C. for 30 minutes.
# CYP2C9 = biological target: T2, CYP2C9 (Homo sapiens, UniProt P11712); test: CYP inhibition test (CYP2C9); type: in vitro ADME; details: pooled human liver microsomes; tolbutamide methyl-hydroxylation
# T2 construct: The commercially available pooled human liver microsomes are used as an enzyme resource; from tissue; host or cells: pooled human liver microsomes
# Excerpt: (§1) The CYP inhibition test is a test to assess the inhibitory effect of a compound of the present invention towards typical substrate metabolism reactions on CYP enzymes in human liver microsomes. The marker reactions on human main five CYP enzymes (CYP1A2, 2C9, 2C19, 2D6, and 3A4) are used as follows: 7-ethoxyresorufin O-deethylation (CYP1A2), tolbutamide methyl-hydroxylation (CYP2C9), mephenytoin 4′-hydroxylation (CYP2C19), dextromethorphan O-demethylation (CYP2D6), and terfenadine hydroxylation (CYP3A4). The commercially available pooled human liver microsomes are used as an enzyme resource.
# (§2) The reaction conditions were as follows: substrate, 0.5 μmol/L ethoxyresorufin (CYP1A2), 100 μmol/L tolbutamide (CYP2C9), 50 μmol/L, S-mephenytoin (CYP2C19), 5 μmol/L dextromethorphan (CYP2D6), 1 μmol/L terfenadine (CYP3A4): reaction time, 15 minutes: reaction temperature, 37° C.; enzyme, pooled human liver microsomes 0.2 mg protein/mL; concentrations of the compound of the present invention, 1, 5, 10, 20 μmol/L (four points).
# (§3) Five kinds of substrates, human liver microsomes, and a compound solution of the present invention in […] Hepes buffer were added to a 96-well plate at the composition as described above as a reaction solution. NADPH as a cofactor was added to this 96-well plate in order to initiate metabolism reactions. After the incubation at 37° C.for […], a methanol/acetonitrile=1/1 (v/v) solution was added to stop the reaction. After the centrifugation at 3000 rpm for 15 minutes, resorufin (CYP1A2 metabolite) in the supernatant was quantified by a fluorescent plate reader, and hydroxytolbutamide (CYP2C9 metabolite), 4′-hydroxymephenytoin (CYP2C19 metabolite), dextrorphan (CYP2D6 metabolite), and terfenadine alcohol metabolite (CYP3A4 metabolite) in the supernatant were quantified by LC/MS/MS.
# (§4) The sample adding DMSO to a reaction system instead of compound of the present invention solution was adopted as a control (100%) because DMSO was used as a solvent to dissolve a compound of the present invention. Remaining activity (%) was calculated at each concentration of a compound of the present invention, and IC50 value was calculated by reverse presumption by a logistic model using a concentration and an inhibition rate.
# CYP1A2 = biological target: T3, CYP1A2 (Homo sapiens, UniProt P05177); test: CYP inhibition test (CYP1A2); type: in vitro ADME; details: pooled human liver microsomes; 7-ethoxyresorufin O-deethylation
# T3 construct: The commercially available pooled human liver microsomes are used as an enzyme resource; from tissue; host or cells: pooled human liver microsomes
# T3 sequence (P05177 1-516): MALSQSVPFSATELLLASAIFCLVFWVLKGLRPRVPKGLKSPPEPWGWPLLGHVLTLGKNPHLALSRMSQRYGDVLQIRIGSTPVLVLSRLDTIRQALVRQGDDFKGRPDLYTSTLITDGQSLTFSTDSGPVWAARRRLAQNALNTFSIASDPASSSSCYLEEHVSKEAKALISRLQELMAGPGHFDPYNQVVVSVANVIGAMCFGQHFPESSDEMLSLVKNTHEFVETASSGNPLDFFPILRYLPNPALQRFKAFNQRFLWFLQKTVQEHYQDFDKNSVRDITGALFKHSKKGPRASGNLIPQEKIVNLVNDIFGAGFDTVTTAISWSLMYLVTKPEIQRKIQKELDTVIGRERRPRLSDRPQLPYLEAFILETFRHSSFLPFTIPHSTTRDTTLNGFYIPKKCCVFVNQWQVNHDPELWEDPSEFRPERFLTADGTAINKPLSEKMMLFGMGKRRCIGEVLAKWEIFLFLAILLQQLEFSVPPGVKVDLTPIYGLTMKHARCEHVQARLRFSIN
# Excerpt: as §1, §2, §3, §4
# [1] = test system: Aβ production in neuroblastoma SH-SY5Y cells (SH/APPwt); test: β-amyloid (Aβ) production inhibitory effect in cell: 384-well; type: cell-based; details: Homo sapiens, Assay format 384-well
# Procedure: Neuroblastoma SH-SY5Y cells (SH/APPwt) with human wild-type β-APT excessively expressed therein were prepared at 4×10^5 cells/mL, and 50 μl portions thereof were inoculated into each well of a 384-well culture plate (Corning) added 0.5 μl of the test compound of the present invention (DMSO solution). The final DMSO concentration was 1%, and the amount of the cell culture was 50 μl. After the incubation was performed for 21 hours from the cell seeding, 5 μl of the culture supernatant was collected from each fraction. The amount of the Aβ in each fraction was measured.
# The Aβ amount was measured as follows. 5 μl of a homogeneous time resolved fluoresrenee (HTRF) measurement reagent (Amyloid β1-40 peptide; CIS bio international) and 5 μl of the culture supernatant were put into a 384′well plate (a black plate: Corning) and mixed with each other, and then left standing overnight at 4° C. while the light was shielded. Then, the fluorescence intensity (620 nm and 665 nm) was measured with EnViston (Perkin Elmer life sciences).
# [2] = biological target: T4, human ether-a-go-go related gene (hERG) channel (Homo sapiens, UniProt Q12809); test: hERG test; type: cell-based; details: % inhibition of IKr tail peak current at 3 uM; CHO cells expressing hERG
# T4 construct: expressed in transfected cells; host or cells: CHO cells
# Excerpt: For the purpose of assessing risk of an electrocardiogram QT interval prolongation, effects on delayed rectifier K+ current (IKr), which plays an important role in the ventricular repolarization process of the compound of the present invention, was studied using CHO cells expressing human ether-a-go-go related gene (hERG) channel.
# A cell was retained at a membrane potential of […] by whole cell patch clamp method using an automated patch clamp system (QPatch:Sophion Bioscience A/S). After application of leak potential at −50 mV, IKr induced by depolarization pulse stimulation at +20 mV for 2 seconds and, further, repolarization pulse stimulation at −50 mV for 2 seconds was recorded.
# CYP2C19 = biological target: T5, CYP2C19 (Homo sapiens, UniProt P33261); test: CYP inhibition test (CYP2C19); type: in vitro ADME; details: pooled human liver microsomes; mephenytoin 4′-hydroxylation
# T5 construct: The commercially available pooled human liver microsomes are used as an enzyme resource; from tissue; host or cells: pooled human liver microsomes
# Excerpt: as §1, §2, §3, §4
# CYP3A4 = biological target: T6, CYP3A4 (Homo sapiens, UniProt P08684); test: CYP inhibition test (CYP3A4); type: in vitro ADME; details: pooled human liver microsomes; terfenadine hydroxylation
# T6 construct: The commercially available pooled human liver microsomes are used as an enzyme resource; from tissue; host or cells: pooled human liver microsomes
# Excerpt: as §1, §2, §3, §4
# Metabolic stability test = type: in vitro ADME; details: human liver microsomes, 37° C., 30 minutes, NADPH
# Procedure: Using a commercially available pooled human liver microsomes, a compound of the present invention was reacted for a constant time, a remaining rate was calculated by comparing a reacted sample and an unreacted sample, thereby, a degree of metabolism in liver was assessed.
# A reaction was performed (oxidative reaction) at 37° C. for 0 minute or 30 minutes in the presence of 1 mmol/L NADPH in 0.2 mL of a buffer (60 mmol/L Tris-HCl pH 7.4, 150 mmol/L potassium chloride, 10 mmol/L magnesium chloride) containing 0.5 mg protein/mL of human liver microsomes. After the reaction, 50 μL of the reaction solution was added to 100 μL of a methanol/acetonltrile=1/1 (v/v), mixed and centrifuged at 3000 rpm for 15 minutes. The compound of the present invention in the supernatant was quantified by LC/MS/MS or solid phase extraction (SPE)/MS, and a remaining amount of the compound of the present invention after the reaction area calculated, letting a compound amount at 0 minute reaction time to be 100%.
# CYP2D6 = biological target: T7, CYP2D6 (Homo sapiens, UniProt P10635); test: CYP inhibition test (CYP2D6); type: in vitro ADME; details: pooled human liver microsomes; dextromethorphan O-demethylation
# T7 construct: The commercially available pooled human liver microsomes are used as an enzyme resource; from tissue; host or cells: pooled human liver microsomes
# Excerpt: as §1, §2, §3, §4
# [3] = JP 1st fluid, pH 1.2, simulated gastric fluid, read-out: JP1
# [4] = JP 2nd fluid B, pH 6.8, aqueous buffer, read-out: JP2_μM
# T7 sequence (P10635 whole entry): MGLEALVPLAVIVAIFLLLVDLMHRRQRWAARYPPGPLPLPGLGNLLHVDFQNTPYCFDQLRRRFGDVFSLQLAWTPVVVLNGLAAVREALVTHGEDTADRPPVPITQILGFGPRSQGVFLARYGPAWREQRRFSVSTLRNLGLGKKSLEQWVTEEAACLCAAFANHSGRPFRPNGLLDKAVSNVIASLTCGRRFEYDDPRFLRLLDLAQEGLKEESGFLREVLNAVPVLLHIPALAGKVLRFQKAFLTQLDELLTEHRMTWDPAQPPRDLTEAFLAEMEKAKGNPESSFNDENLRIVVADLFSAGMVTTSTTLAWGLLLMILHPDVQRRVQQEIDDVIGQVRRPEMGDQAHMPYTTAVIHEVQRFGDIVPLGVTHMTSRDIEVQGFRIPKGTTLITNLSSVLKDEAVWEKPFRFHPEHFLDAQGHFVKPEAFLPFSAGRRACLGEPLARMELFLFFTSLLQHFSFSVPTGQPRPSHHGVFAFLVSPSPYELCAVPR
# T5 sequence (P33261 whole entry): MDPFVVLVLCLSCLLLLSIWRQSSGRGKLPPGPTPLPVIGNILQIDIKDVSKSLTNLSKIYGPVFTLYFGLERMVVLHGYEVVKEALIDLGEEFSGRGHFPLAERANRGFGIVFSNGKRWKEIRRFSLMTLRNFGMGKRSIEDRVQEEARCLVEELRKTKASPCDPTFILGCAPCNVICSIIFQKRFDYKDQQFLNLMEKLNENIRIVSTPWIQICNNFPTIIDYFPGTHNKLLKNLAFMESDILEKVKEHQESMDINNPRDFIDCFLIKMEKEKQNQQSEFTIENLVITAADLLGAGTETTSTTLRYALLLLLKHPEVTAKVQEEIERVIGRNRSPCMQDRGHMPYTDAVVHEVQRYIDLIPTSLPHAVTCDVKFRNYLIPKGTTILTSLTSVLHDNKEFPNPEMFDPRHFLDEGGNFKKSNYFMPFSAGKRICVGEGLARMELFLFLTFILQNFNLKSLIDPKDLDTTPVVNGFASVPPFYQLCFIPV
# T2 sequence (P11712 whole entry): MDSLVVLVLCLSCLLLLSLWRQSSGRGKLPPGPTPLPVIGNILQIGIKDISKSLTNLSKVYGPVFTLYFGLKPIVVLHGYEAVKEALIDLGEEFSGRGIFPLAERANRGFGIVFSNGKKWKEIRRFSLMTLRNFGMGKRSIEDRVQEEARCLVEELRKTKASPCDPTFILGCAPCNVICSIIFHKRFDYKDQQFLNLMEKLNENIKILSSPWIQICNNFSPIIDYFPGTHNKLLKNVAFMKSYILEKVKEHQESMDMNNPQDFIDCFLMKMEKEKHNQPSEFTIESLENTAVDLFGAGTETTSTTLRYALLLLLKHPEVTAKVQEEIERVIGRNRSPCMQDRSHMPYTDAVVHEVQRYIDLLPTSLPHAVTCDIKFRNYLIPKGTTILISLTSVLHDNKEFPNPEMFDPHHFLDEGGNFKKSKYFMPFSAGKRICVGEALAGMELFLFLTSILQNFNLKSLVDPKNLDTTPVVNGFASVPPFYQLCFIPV
# T1 sequence (P56817 46-501): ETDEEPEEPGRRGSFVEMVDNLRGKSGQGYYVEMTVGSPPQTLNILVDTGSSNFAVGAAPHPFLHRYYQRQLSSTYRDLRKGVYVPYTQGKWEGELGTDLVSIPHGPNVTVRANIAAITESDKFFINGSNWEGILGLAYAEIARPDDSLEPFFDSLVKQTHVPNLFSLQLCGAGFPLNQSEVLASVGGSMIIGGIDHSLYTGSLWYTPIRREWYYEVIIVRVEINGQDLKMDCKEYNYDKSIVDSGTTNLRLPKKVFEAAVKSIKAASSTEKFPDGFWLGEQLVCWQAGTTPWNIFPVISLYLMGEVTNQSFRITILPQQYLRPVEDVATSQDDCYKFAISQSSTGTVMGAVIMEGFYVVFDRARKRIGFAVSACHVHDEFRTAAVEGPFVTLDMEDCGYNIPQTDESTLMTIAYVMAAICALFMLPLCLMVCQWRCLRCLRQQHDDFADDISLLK
# T6 sequence (P08684 whole entry): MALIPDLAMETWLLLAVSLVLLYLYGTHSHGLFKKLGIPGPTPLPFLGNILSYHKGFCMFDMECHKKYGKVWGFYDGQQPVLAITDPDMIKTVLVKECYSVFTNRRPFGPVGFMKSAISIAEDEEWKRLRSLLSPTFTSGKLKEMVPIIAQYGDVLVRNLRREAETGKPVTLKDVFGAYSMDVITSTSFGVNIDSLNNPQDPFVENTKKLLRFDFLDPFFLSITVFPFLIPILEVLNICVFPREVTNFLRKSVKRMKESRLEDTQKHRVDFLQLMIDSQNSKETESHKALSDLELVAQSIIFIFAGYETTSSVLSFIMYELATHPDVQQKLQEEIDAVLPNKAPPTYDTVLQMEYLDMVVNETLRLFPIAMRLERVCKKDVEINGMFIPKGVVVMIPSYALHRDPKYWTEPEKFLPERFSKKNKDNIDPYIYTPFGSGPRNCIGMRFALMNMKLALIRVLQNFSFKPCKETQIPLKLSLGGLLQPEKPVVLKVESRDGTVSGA
# T4 sequence (Q12809 whole entry): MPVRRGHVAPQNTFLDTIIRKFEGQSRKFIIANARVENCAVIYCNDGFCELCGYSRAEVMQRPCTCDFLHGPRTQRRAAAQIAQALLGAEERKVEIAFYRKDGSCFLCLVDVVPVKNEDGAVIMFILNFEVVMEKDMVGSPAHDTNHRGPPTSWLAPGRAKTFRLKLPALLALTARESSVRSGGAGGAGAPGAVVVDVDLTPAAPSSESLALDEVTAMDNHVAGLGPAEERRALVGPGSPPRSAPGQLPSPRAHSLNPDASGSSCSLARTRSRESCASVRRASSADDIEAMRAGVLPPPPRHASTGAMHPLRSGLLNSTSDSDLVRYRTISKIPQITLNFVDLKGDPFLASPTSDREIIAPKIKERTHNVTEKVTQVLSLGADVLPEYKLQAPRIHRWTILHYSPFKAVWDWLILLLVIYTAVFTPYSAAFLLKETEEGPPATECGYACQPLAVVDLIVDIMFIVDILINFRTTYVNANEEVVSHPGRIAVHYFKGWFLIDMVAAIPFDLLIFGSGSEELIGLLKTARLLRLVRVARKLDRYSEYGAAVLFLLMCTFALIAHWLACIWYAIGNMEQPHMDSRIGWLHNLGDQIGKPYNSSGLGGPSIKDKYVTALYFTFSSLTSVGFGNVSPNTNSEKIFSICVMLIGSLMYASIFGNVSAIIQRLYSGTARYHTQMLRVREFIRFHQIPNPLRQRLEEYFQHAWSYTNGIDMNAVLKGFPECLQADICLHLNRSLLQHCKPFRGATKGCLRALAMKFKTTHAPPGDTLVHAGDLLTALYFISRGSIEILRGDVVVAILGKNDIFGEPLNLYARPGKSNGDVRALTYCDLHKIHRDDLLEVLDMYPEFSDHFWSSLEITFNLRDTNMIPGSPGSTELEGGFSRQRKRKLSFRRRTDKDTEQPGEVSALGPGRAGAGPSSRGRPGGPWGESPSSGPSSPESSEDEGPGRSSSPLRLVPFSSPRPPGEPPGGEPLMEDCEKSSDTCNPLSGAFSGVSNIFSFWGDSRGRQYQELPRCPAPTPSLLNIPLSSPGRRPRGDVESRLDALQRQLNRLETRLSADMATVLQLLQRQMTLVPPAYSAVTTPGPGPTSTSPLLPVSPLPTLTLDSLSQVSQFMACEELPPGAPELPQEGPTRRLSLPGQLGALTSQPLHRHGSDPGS
solubility kinetic at 1 h (Solubility test; [3]),solubility kinetic at 16 h (Solubility test; read-out: JP2_μM),pIC50 (Recombinant human BACE1),pIC50 (CYP2C9),pIC50 (CYP1A2),pIC50 [1],pIC50 (CYP2C19),pIC50 (CYP3A4),remaining % (Metabolic stability test),pIC50 (CYP2D6),solubility kinetic at 1 h (Solubility test; [4]),SMILES,hERG_3 uM_% [2]
> 50 µM,>50 µM,7.86,≤ 4.70,≤ 4.70,9.17,≤ 4.70,–,–,–,–,C[C@]1(c2cc(NC(=O)c3ccc(OCF)cn3)ccc2F)N=C(N)SCC12CC(F)(F)C2 [Compound I-58],58.6%
> 50 µM,>50 µM,7.45,≤ 5.00,≤ 4.70,7.74,≤ 4.70,≤ 5.00,–,–,–,COCC(F)(F)[C@H]1OC(N)=N[C@](C)(c2cc(NC(=O)c3cnc(OC)cn3)ccc2F)[C@H]1F [Compound I-80],8.9%
> 50 µM,>50.0 µM,7.63,≤ 5.00,≤ 4.70,6.35,≤ 4.70,≤ 5.00,105%,–,–,COc1ccc(C(=O)Nc2ccc(F)c([C@@]3(C)N=C(N)O[C@H](C(F)(F)C4CC4)[C@@H]3F)c2)nn1 [Compound I-95],–
> 50 µM,>50.0 µM,7.61,≤ 5.00,≤ 4.70,9.00,≤ 4.70,≤ 4.70,89.4%,≤ 5.00,–,Cc1cc(C#N)cnc1C(=O)Nc1ccc(F)c([C@@]2(C)N=C(N)O[C@H](C3(F)CC3)[C@@H]2F)c1 [Compound I-99],–
> 50 µM,>50.0 µM,7.63,≤ 4.70,≤ 4.70,8.80,≤ 4.70,≤ 4.70,78.1%,≤ 4.70,–,C[C@H]1SC(N)=N[C@](C)(c2cccc(NC(=O)c3ccc(C#N)cn3)c2)[C@H]1F [Compound I-102],–
47.3 µM,–,7.52,≤ 4.70,≤ 4.70,9.13,≤ 4.70,≤ 4.70,56.8%,≤ 4.70,> 50 µM,Cc1cc(C#N)cnc1C(=O)Nc1cccc([C@@]2(C)N=C(N)S[C@H](C)[C@@H]2F)c1 [Compound I-105],–
33.5 µM,–,7.63,≤ 5.00,≤ 4.70,9.38,≤ 4.70,≤ 4.70,64.2%,≤ 4.70,> 50 µM,C[C@H]1SC(N)=N[C@](C)(c2cccc(NC(=O)c3ccc(OCF)cn3)c2)[C@H]1F [Compound I-107],–
42.1 µM,–,7.65,≤ 5.00,≤ 4.70,8.96,≤ 4.70,≤ 4.70,81.1%,≤ 5.00,> 50 µM,C[C@H]1SC(N)=N[C@](C)(c2cc(NC(=O)c3ncc(C#N)cc3F)ccc2F)[C@H]1F [Compound I-110],–
> 50 µM,–,6.79,≤ 4.70,≤ 4.70,7.40,≤ 4.70,≤ 4.70,–,≤ 4.70,48.6 µM,C[C@@H]1SC(N)=N[C@](C)(c2cc(NC(=O)c3ccc(C#N)cn3)ccc2F)[C@@H]1F [Compound I-113],–
